According to the NIST ThermoML archive (doi:10.1021/acs.jced.6b00504):

Assay: wn = mass fraction of the nth substance listed
Details: 100 kPa, Liquid; for viscosity: Falling or rolling sphere viscometry; for mass density: Vibrating tube method

CNCCO [2-(methylamino)ethanol] + O
Details	mass density, w1 = 0.075 [kg/m3]	mass density, w1 = 0.15 [kg/m3]	mass density, w1 = 0.225 [kg/m3]	mass density, w1 = 0.3 [kg/m3]	viscosity, w1 = 0.075 [mPa·s]	viscosity, w1 = 0.15 [mPa·s]	viscosity, w1 = 0.225 [mPa·s]	viscosity, w1 = 0.3 [mPa·s]
293.15 K	997.66	997.93	999	1001.69	1.39	1.875	2.702	3.973
298.15 K	996.35	996.35	997.03	999.21	1.217	1.639	2.367	3.335
303.15 K	994.81	994.57	994.9	996.58	1.075	1.426	2.02	2.886
308.15 K	993.06	992.6	992.58	993.8	0.958	1.263	1.744	2.461
313.15 K	991.11	990.45	990.11	990.81	0.859	1.151	1.521	2.157
318.15 K	988.99	988.13	987.49	987.7	0.777	1.022	1.409	1.902
323.15 K	986.7	985.66	984.71	984.5	0.707	0.993	1.299	1.727
